This passage reports IC50 results from US20200405696A1, “INHIBITORS OF INDOLEAMINE 2,3-DIOXYGENASE AND/OR TRYPTOPHAN 2,3-DIOXYGENASE” (IDORSIA PHARMACEUTICALS LTD, priority 2018, published 2020).

Experiment [1] concerns the target T1, Recombinant human TDO comprising amino acids 19-407 (Homo sapiens, UniProt P48775).
T1 construct: Recombinant human TDO comprising amino acids 19-407 with a N-terminal hexahistidine tag; hexahistidine (His6) (N); made in house; host or cells: E. coli
In words: TDO2 enzymatic assay (NFK quantified by LCMS). The experiment is classed as biochemical. Conditions: 15 nM enzyme, 200 μM L-tryptophan, pH7, 30 minutes pre-incubation at RT; mean values when measured multiple times; read-out: hTDO activity (IC50 in nM). The method, boiled down:
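NFK formed over 30 min at RT from 200 μM L-tryptophan was measured by LCMS, normalized to d5-tryptophan, after compound (0.5 nM–10 μM, duplicates, 0.6% DMSO) was preincubated 30 min with 15 nM recombinant His-tagged TDO 19-407 in phosphate buffer pH 7. IC50 from four-parameter logistic fit; repeats averaged.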

In experiment [2] the target is T2, Recombinant full-length human IDO1 (Homo sapiens, UniProt P14902).
T2 construct: Recombinant full-length human IDO1 with a N-terminal hexahistidine tag; hexahistidine (His6) (N); made in house; host or cells: E. coli
T2 sequence (P14902 whole entry): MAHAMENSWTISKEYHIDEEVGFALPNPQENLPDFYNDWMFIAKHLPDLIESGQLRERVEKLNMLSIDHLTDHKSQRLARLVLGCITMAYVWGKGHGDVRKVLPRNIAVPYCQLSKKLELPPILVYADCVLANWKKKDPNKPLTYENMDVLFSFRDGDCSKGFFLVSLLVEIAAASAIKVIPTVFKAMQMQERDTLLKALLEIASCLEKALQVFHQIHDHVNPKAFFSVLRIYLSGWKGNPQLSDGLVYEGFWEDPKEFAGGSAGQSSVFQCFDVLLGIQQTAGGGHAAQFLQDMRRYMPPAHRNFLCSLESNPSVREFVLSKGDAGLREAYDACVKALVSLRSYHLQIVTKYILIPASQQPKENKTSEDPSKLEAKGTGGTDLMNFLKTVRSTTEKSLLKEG
Put plainly: IDO1 enzymatic assay (NFK quantified by LCMS). Type of experiment: biochemical. Conditions: 2 nM enzyme, 5 μM L-tryptophan, pH6.5, 30 minutes pre-incubation at RT; mean values when measured multiple times; read-out: hIDO activity (IC50 in nM). The method, boiled down:
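IC50 comes from four-parameter logistic fits of duplicate data, with NFK quantified by LCMS and normalized to L-Trp-(indole-d5). Compound (0.5 nM–10 μM) was preincubated 30 min at RT with 2 nM E. coli-expressed IDO1 before a 30 min reaction with 5 μM tryptophan in pH 6.5 buffer containing ascorbate and methylene blue.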

T1 sequence (P48775 19-406 limits assumed): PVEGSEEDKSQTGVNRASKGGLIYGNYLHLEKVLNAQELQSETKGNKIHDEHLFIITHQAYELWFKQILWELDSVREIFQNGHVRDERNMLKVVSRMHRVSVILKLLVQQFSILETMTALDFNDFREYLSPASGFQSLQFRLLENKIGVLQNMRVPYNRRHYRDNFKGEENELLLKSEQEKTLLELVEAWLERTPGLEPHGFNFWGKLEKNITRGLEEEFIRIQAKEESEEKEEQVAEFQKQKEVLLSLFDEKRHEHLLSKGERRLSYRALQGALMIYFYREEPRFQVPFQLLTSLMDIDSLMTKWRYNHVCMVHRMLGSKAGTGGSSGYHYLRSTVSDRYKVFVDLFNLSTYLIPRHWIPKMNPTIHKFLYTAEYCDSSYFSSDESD

Regarding `OC(c1cn(-c2ccc(OCC3(F)COC3)c(Cl)c2)nn1)c1c(-c2ccccc2)sc2cncn12` (racemic) [Example 266, rac-{1-[3-Chloro-4-(3-fluoro-oxetan-3-ylmethoxy)-phenyl]-1H-[1,2,3]triazol-4-yl}-(2-phenyl-imidazo[5,1-b]thiazol-3-yl)-methanol], the results for the IC50 in experiment [1] and in experiment [2] were more than 10200 nM and 179 nM, respectively.

As for `CCOc1ncc(-n2cc(C(O)c3c(C4CC4)sc4cncn34)nn2)cn1` (racemic) [Example 65, rac-(2-Cyclopropyl-imidazo[5,1-b]thiazol-3-yl)-[1-(2-ethoxy-pyrimidin-5-yl)-1H-[1,2,3]triazol-4-yl]-methanol], the IC50 is more than 10200 nM in experiment [1] and 14.2 nM in experiment [2].

As for `N#CCCNC(=O)c1ccc(-n2cc(C(O)c3c(C4CC4)sc4cncn34)nn2)cc1` (racemic) [Example 108, rac-N-(2-Cyano-ethyl)-4-{4-[(2-cyclopropyl-imidazo[5,1-b]thiazol-3-yl)-hydroxy-methyl]-[1,2,3]triazol-1-yl}-benzamide], the values for the IC50 in experiment [1] and in experiment [2] were more than 10200 nM and 10 nM, respectively.

`Cc1sc2cncn2c1C(O)c1cn(-c2ccc(C3(CO)CC3)cc2)nn1` (racemic) [Example 57, rac-{1-[4-(1-Hydroxymethyl-cyclopropyl)-phenyl]-1H-[1,2,3]triazol-4-yl}-(2-methyl-imidazo[5,1-b]thiazol-3-yl)-methanol]: the IC50 in experiment [1] was more than 10200 nM; in experiment [2], 391 nM.

For the molecule `OC(c1cn(-c2cccc3ncccc23)nn1)c1c(C2CC2)sc2cncn12` (racemic) [Example 24, rac-(2-Cyclopropyl-imidazo[5,1-b]thiazol-3-yl)-(1-quinolin-5-yl-1H-[1,2,3]triazol-4-yl)-methanol], the figures for the IC50 in experiment [1] and in experiment [2] were more than 10200 nM and 22.8 nM, respectively.

`CCc1sc2cncn2c1C(O)c1cn(-c2ccc(O)c(Cl)c2)nn1` (racemic) [Example 323, rac-2-Chloro-4-{4-[(2-ethyl-imidazo[5,1-b]thiazol-3-yl)-hydroxy-methyl]-[1,2,3]triazol-1-yl}-phenol]: the IC50 is 1210 nM in experiment [1] and 3.82 nM in experiment [2].

Take `CCc1sc2cncn2c1C(O)c1cn(-c2cc(Cl)c(OC)cc2F)nn1` (racemic) [Example 319, rac-[1-(5-Chloro-2-fluoro-4-methoxy-phenyl)-1H-[1,2,3]triazol-4-yl]-(2-ethyl-imidazo[5,1-b]thiazol-3-yl)-methanol]: the IC50 in experiment [1] was 4430 nM; in experiment [2], 3.18 nM.

Consider `CCOc1ccc(-n2cc(C(O)c3c(C4CC4)sc4cncn34)nn2)cn1` (racemic) [Example 42, rac-(2-Cyclopropyl-imidazo[5,1-b]thiazol-3-yl)-[1-(6-ethoxy-pyridin-3-yl)-1H-[1,2,3]triazol-4-yl]-methanol], for which the results for the IC50 in experiment [1] and in experiment [2] were more than 10200 nM and 20.2 nM, respectively.

In the case of `COc1ccc(-n2cc(C(O)c3c([C@@H]4C[C@@H]4F)sc4cncn34)nn2)cc1` (relative stereo) [Example 93, [2-(cis-2-Fluoro-cyclopropyl)-imidazo[5,1-b]thiazol-3-yl]-[1-(4-methoxy-phenyl)-1H-[1,2,3]triazol-4-yl]-methanol], the figures for the IC50 in experiment [1] and in experiment [2] were more than 10200 nM and 25 nM, respectively.

Consider `COc1cc(C)c(-n2cc(C(O)c3c(C4CC4)sc4cncn34)nn2)c(C)c1` (racemic) [Example 311, rac-(2-Cyclopropyl-imidazo[5,1-b]thiazol-3-yl)-[1-(4-methoxy-2,6-dimethyl-phenyl)-1H-[1,2,3]triazol-4-yl]-methanol], for which the results for the IC50 in experiment [1] and in experiment [2] were more than 10200 nM and 137 nM, respectively.

As to `OC(c1cn(-c2cnc(OCc3ccccc3)nc2)nn1)c1c(C2CC2)sc2cncn12` (racemic) [Example 85, rac-[1-(2-Benzyloxy-pyrimidin-5-yl)-1H-[1,2,3]triazol-4-yl]-(2-cyclopropyl-imidazo[5,1-b]thiazol-3-yl)-methanol], the IC50 is more than 10200 nM in experiment [1] and 11.5 nM in experiment [2].

Turning to `CCc1sc2cncn2c1C(O)c1cn(-c2ccc(C(=O)NCc3ccco3)cc2)nn1` (racemic) [Example 123, rac-4-{4-[(2-Ethyl-imidazo[5,1-b]thiazol-3-yl)-hydroxy-methyl]-[1,2,3]triazol-1-yl}-N-furan-2-ylmethyl-benzamide], the figures for the IC50 in experiment [1] and in experiment [2] were 6770 nM and 8.09 nM, respectively.

As for `CC(C)(C)OC(=O)Nc1ccc(-n2cc(C(O)c3c(C4CC4)sc4cncn34)nn2)c(F)c1` (racemic) [Example 151, rac-(4-{4-[(2-Cyclopropyl-imidazo[5,1-b]thiazol-3-yl)-hydroxy-methyl]-[1,2,3]triazol-1-yl}-3-fluoro-phenyl)-carbamic Acid Tert-Butyl Ester], the IC50 in experiment [1] is more than 10200 nM; in experiment [2], 55.8 nM.

Take `CCN(C)C(=O)c1ccc(-n2cc(C(O)c3c(C4CC4)sc4cncn34)nn2)cc1` (racemic) [Example 191, rac-4-{4-[(2-Cyclopropyl-imidazo[5,1-b]thiazol-3-yl)-hydroxy-methyl]-[1,2,3]triazol-1-yl}-N-ethyl-N-methyl-benzamide]: the IC50 was more than 10200 nM in experiment [1] and 109 nM in experiment [2].

`COc1ccc(-n2cc(C(O)c3c([C@@H]4C[C@H]4F)sc4cncn34)nn2)cc1` (relative stereo) [Example 94, [2-(trans-2-Fluoro-cyclopropyl)-imidazo[5,1-b]thiazol-3-yl]-[1-(4-methoxy-phenyl)-1H-[1,2,3]triazol-4-yl]-methanol]: the IC50 is more than 10200 nM in experiment [1] and 12.8 nM in experiment [2].

With `OC(c1ncc(-c2ccccc2)s1)c1c(C2CC2)sc2cncn12` (racemic) [Example 171, rac-(2-Cyclopropyl-imidazo[5,1-b]thiazol-3-yl)-(5-phenyl-thiazol-2-yl)-methanol], the concentration for half-maximal inhibition (IC50) in experiment [1] was more than 10200 nM; in experiment [2] it was 578 nM.

As to `O=C(NCCO)c1ccc(-n2cc(C(O)c3c(C4CC4)sc4cncn34)nn2)cc1` (racemic) [Example 186, rac-4-{4-[(2-Cyclopropyl-imidazo[5,1-b]thiazol-3-yl)-hydroxy-methyl]-[1,2,3]triazol-1-yl}-N-(2-hydroxy-ethyl)-benzamide], the IC50 in experiment [1] is more than 10200 nM; in experiment [2], 17.3 nM.

For `CCc1sc2cncn2c1C(O)c1cn(-c2ccc(OCCC(C)(C)O)c(Cl)c2)nn1` (racemic) [Example 302, rac-4-(2-Chloro-4-{4-[(2-ethyl-imidazo[5,1-b]thiazol-3-yl)-hydroxy-methyl]-[1,2,3]triazol-1-yl}-phenoxy)-2-methyl-butan-2-ol], the IC50 in experiment [1] was more than 10200 nM; in experiment [2], 6.88 nM.

With `COc1ccc(-n2nnc(C(O)c3c(C4CC4)sc4cncn34)c2C2CC2)cc1` (racemic) [Example 281, rac-(2-Cyclopropyl-imidazo[5,1-b]thiazol-3-yl)-[5-cyclopropyl-1-(4-methoxy-phenyl)-1H-[1,2,3]triazol-4-yl]-methanol], the IC50 was 9020 nM in experiment [1] and 13.7 nM in experiment [2].

For `OC(c1cn(-c2ccc(C(F)(F)F)cc2)nn1)c1c(C2CC2)sc2cncn12` (racemic) [Example 6, rac-(2-Cyclopropyl-imidazo[5,1-b]thiazol-3-yl)-[1-(4-trifluoromethyl-phenyl)-1H-[1,2,3]triazol-4-yl]-methanol], the IC50 is more than 10200 nM in experiment [1] and 119 nM in experiment [2].

For the molecule `CCc1sc2cncn2c1C(O)c1cn(-c2ccc3[nH]c(=O)oc3c2)nn1` (racemic) [Example 181, rac-6-{4-[(2-Ethyl-imidazo[5,1-b]thiazol-3-yl)-hydroxy-methyl]-[1,2,3]triazol-1-yl}-3H-benzooxazol-2-one], the concentration for half-maximal inhibition (IC50) was 4330 nM in experiment [1] and 7.86 nM in experiment [2].

As for `CCc1c(C(O)c2c(C3CC3)sc3cncn23)nnn1-c1ccc(OC)cc1` (racemic) [Example 279, rac-(2-Cyclopropyl-imidazo[5,1-b]thiazol-3-yl)-[5-ethyl-1-(4-methoxy-phenyl)-1H-[1,2,3]triazol-4-yl]-methanol], the IC50 was more than 10200 nM in experiment [1] and 13.6 nM in experiment [2].

Take `CCc1sc2cncn2c1C(O)c1cn(Cc2ccccc2)nn1` (racemic) [Example 53, rac-(1-Benzyl-1H-[1,2,3]triazol-4-yl)-(2-ethyl-imidazo[5,1-b]thiazol-3-yl)-methanol]: the IC50 in experiment [1] is more than 10200 nM; in experiment [2], 73.6 nM.

Turning to `CC(C)(O)CCOc1ccc(-n2cc([C@H](O)c3c(C4CC4)sc4cncn34)nn2)cc1` [Example 140a, 4-(4-{4-[(R)-(2-Cyclopropyl-imidazo[5,1-b]thiazol-3-yl)-hydroxy-methyl]-[1,2,3]triazol-1-yl}-phenoxy)-2-methyl-butan-2-ol], the values for the 50% inhibitory concentration (IC50) in experiment [1] and in experiment [2] were more than 10200 nM and 7.31 nM, respectively.

In the case of `CCNC(=O)c1ccc(-n2cc(C(O)c3c(C4CC4)sc4cncn34)nn2)cc1` (racemic) [Example 107, rac-4-{4-[(2-Cyclopropyl-imidazo[5,1-b]thiazol-3-yl)-hydroxy-methyl]-[1,2,3]triazol-1-yl}-N-ethyl-benzamide], the IC50 in experiment [1] is more than 10200 nM; in experiment [2], 16.6 nM.

As a reminder, the IC50 is the concentration needed to halve the response being measured.
